Measurements from patent publication US20100166765A1, “BENZOQUINAZOLINE DERIVATIVES” (priority 2005, published 2010).

melting point [°C]	SMILES
166 to 168	C#CCOc1ccc2nc(C(=O)c3ccc(C(C)(C)C)cc3)nc(-c3ccc(C(C)C)cc3)c2c1 [Example 1, (4-tert-Butyl-phenyl)-[4-(4-isopropyl-phenyl)-6-propargyloxy-quinazolin-2-yl]-methanone]
124 to 126	C#CCOc1ccc2nc(C(=O)c3ccc(F)cc3)nc(-c3ccc(C(C)C)cc3)c2c1 [Example 6, (4-Fluoro-phenyl)-[4-(4-isopropyl-phenyl)-6-propargyloxy-quinazolin-2-yl]-methanone]
118 to 120	C#CCOc1ccc2nc(C(=O)c3cccc(F)c3)nc(-c3ccc(C(C)C)cc3)c2c1 [Example 7, (3-Fluoro-phenyl)-[4-(4-isopropyl-phenyl)-6-propargyloxy-quinazolin-2-yl]-methanone]
128 to 130	C#CCOc1ccc2nc(C(=O)c3cccc(Cl)c3)nc(-c3ccc(C(C)C)cc3)c2c1 [Example 8, (3-Chloro-phenyl)-[4-(4-isopropyl-phenyl)-6-propargyloxy-quinazolin-2-yl]-methanone]
108 to 110	C#CCOc1ccc2nc(C(=O)c3ccc(Cl)cc3)nc(-c3ccc(C(C)C)cc3)c2c1 [Example 9, (4-Chloro-phenyl)-[4-(4-isopropyl-phenyl)-6-propargyloxy-quinazolin-2-yl]-methanone]
105 to 107	C#CCOc1ccc2nc(C(=O)c3ccc(F)cc3)nc(-c3ccc(C(C)(C)C)cc3)c2c1 [Example 10, (4-Fluoro-phenyl)-[4-(4-tert.butyl-phenyl)-6-propargyloxy-quinazolin-2-yl]-methanone]
156 to 158	C#CCOc1ccc2nc(C(=O)c3cccc(F)c3)nc(-c3ccc(C(C)(C)C)cc3)c2c1 [Example 11, (3-Fluoro-phenyl)-[4-(4-tert.butyl-phenyl)-6-propargyloxy-quinazolin-2-yl]-methanone]
132	C#CCOc1ccc2nc(C(=O)c3cccc(Br)c3)nc(-c3ccc(C(C)C)cc3)c2c1 [Example 12, (3-Bromo-phenyl)-[4-(4-isopropyl-phenyl)-6-propargyloxy-quinazolin-2-yl]-methanone]
97 to 100	C#CCOc1ccc2nc(C(=O)c3ccc(Br)cc3)nc(-c3ccc(C(C)C)cc3)c2c1 [Example 13, (4-Bromo-phenyl)-[4-(4-isopropyl-phenyl)-6-propargyloxy-quinazolin-2-yl]-methanone]
130 to 132	C#CCOc1ccc2nc(C(=O)c3ccc(C)cc3)nc(-c3ccc(C(C)C)cc3)c2c1 [Example 14, (4-Methyl-phenyl)-[4-(4-isopropyl-phenyl)-6-propargyloxy-quinazolin-2-yl]-methanone]
132 to 134	C#CCOc1ccc2nc(C(=O)c3ccc(C(C)C)cc3)nc(-c3ccc(C(C)C)cc3)c2c1 [Example 15, (4-Isopropyl-phenyl)-[4-(4-isopropyl-phenyl)-6-propargyloxy-quinazolin-2-yl]-methanone]
108 to 111	C#CCOc1ccc2nc(C(=O)c3ccc(CC)cc3)nc(-c3ccc(C(C)C)cc3)c2c1 [Example 16, (4-Ethyl-phenyl)-[4-(4-isopropyl-phenyl)-6-propargyloxy-quinazolin-2-yl]-methanone]
140 to 142	C#CCOc1ccc2nc(C(=O)c3ccc(CCC)cc3)nc(-c3ccc(C(C)C)cc3)c2c1 [Example 16a, (4-Propyl-phenyl)-[4-(4-isopropyl-phenyl)-6-propargyloxy-quinazolin-2-yl]-methanone]
130 to 132	C#CCOc1ccc2nc(C(=O)c3ccc(C#N)cc3)nc(-c3ccc(C(C)C)cc3)c2c1 [Example 17, (4-Cyano-phenyl)-[4-(4-isopropyl-phenyl)-6-propargyloxy-quinazolin-2-yl]-methanone]
161 to 164	C#CCOc1ccc2nc(C(=O)c3ccc(SC)cc3)nc(-c3ccc(C(C)C)cc3)c2c1 [Example 18, (4-Methylthio-phenyl)-[4-(4-isopropyl-phenyl)-6-propargyloxy-quinazolin-2-yl]-methanone]
181 to 184	C#CCOc1ccc2nc(C(=O)c3ccc(S(C)(=O)=O)cc3)nc(-c3ccc(C(C)C)cc3)c2c1 [Example 19, (4-Methansulfonyl-phenyl)-[4-(4-isopropyl-phenyl)-6-propargyloxy-quinazolin-2-yl]-methanone]
148 to 151	C#CCOc1ccc2nc(C(=O)c3ccc(N(C)C)cc3)nc(-c3ccc(C(C)C)cc3)c2c1 [Example 20, (4-Dimethylamino-phenyl)-[4-(4-isopropyl-phenyl)-6-propargyloxy-quinazolin-2-yl]-methanone]
117 to 119	C#CCOc1ccc2nc(C(=O)c3ccc(OCC)cc3)nc(-c3ccc(C(C)C)cc3)c2c1 [Example 21, (4-Ethoxy-phenyl)-[4-(4-isopropyl-phenyl)-6-propargyloxy-quinazolin-2-yl]-methanone]

melting point [°C]	SMILES
108 to 110	C#CCOc1ccc2nc(C(=O)c3ccc(C(=O)OC)cc3)nc(-c3ccc(C(C)C)cc3)c2c1 [Example 22, 4-[4-(4-Isopropyl-phenyl)-6-propargyloxy-quinazoline-2-carbonyl]-benzoic acid methyl ester]
150 to 152	C#CCOc1ccc2nc(C(=O)c3ccc(N(C)C)cc3)nc(-c3ccc(C(C)(C)C)cc3)c2c1 [Example 23, (4-Dimethylamino-phenyl)-[4-(4-tert.butyl-phenyl)-6-propargyloxy-quinazolin-2-yl]-methanone]
169 to 172	C#CCOc1ccc2nc(C(=O)c3ccc(N(C)C)cc3)nc(-c3ccc(C4CC4)cc3)c2c1 [Example 24, (4-Dimethylamino-phenyl)-[4-(4-cyclopropyl-phenyl)-6-propargyloxy-quinazolin-2-yl]-methanone]
132 to 134	C#CCOc1ccc2nc(C(=O)c3ccc(C(=O)OCC)cc3)nc(-c3ccc(C(C)C)cc3)c2c1 [Example 25, 4-[4-(4-Isopropyl-phenyl)-6-propargyloxy-quinazoline-2-carbonyl]-benzoic acid ethyl ester]
150 to 152	C#CCOc1ccc2nc(C(=O)c3ccc(OC)cc3)nc(-c3ccc(C(C)(C)C)cc3)c2c1 [Example 26, (4-Methoxy-phenyl)-[4-(4-tert.butyl-phenyl)-6-propargyloxy-quinazolin-2-yl]-methanone]
147 to 149	C#CCOc1ccc2nc(C(=O)c3ccc(OC)cc3)nc(-c3ccc(C4CC4)cc3)c2c1 [Example 27]
148	C#CCOc1ccc2nc(C(=O)c3ccc(OC)c(OCC)c3)nc(-c3ccc(C(C)C)cc3)c2c1 [Example 28, (3-Ethoxy-4-methoxy-phenyl)-[4-(4-isopropyl-phenyl)-6-propargyloxy-quinazolin-2-yl]-methanone]
130 to 132	C#CCOc1ccc2nc(C(=O)c3ccc(OC(C)(C)C)cc3)nc(-c3ccc(C(C)C)cc3)c2c1 [Example 29, (4-tert.Butyloxy-phenyl)-[4-(4-isopropyl-phenyl)-6-propargyloxy-quinazolin-2-yl]-methanone]
185 to 187	C#CCOc1ccc2nc(C(=O)c3ccc(O)cc3)nc(-c3ccc(C(C)C)cc3)c2c1 [Example 30, (4-Hydroxy)-[4-(4-isopropyl-phenyl)-6-propargyloxy-quinazolin-2-yl]-methanone]
91 to 93	C#CCOc1ccc2nc(C(=O)c3ccc(OCCCC)cc3)nc(-c3ccc(C(C)C)cc3)c2c1 [Example 31, (4-Butyloxy)-[4-(4-isopropyl-phenyl)-6-propargyloxy-quinazolin-2-yl]-methanone]
150 to 151	C#CCOc1ccc2nc(C(=O)c3ccco3)nc(-c3ccc(C(C)C)cc3)c2c1 [Example 32, Furan-2-yl-[4-(4-isopropyl-phenyl)-6-propargyloxy-quinazolin-2-yl]-methanone]
170	C#CCOc1ccc2nc(C(=O)c3ccoc3)nc(-c3ccc(C(C)(C)C)cc3)c2c1 [Example 33, Furan-3-yl-[4-(4-tert.butyl-phenyl)-6-propargyloxy-quinazolin-2-yl]-methanone]
133	C#CCOc1ccc2nc(C(=O)c3ccoc3)nc(-c3ccc(C(C)C)cc3)c2c1 [Example 34, Furan-3-yl-[4-(4-isopropyl-phenyl)-6-propargyloxy-quinazolin-2-yl]-methanone]
113 to 117	C#CCOc1ccc2nc(C(=O)c3cccs3)nc(-c3ccc(C(C)C)cc3)c2c1 [Example 35, Thiophen-2-yl-[4-(4-isopropyl-phenyl)-6-propargyloxy-quinazolin-2-yl]-methanone]
130 to 132	C#CCOc1ccc2nc(C(=O)c3sccc3C)nc(-c3ccc(C(C)C)cc3)c2c1 [Example 36]
167 to 169	C#CCOc1ccc2nc(C(=O)c3cc4ccccc4s3)nc(-c3ccc(C(C)C)cc3)c2c1 [Example 37, Benz[b]thiophen-2-yl-[4-(4-isopropyl-phenyl)-6-propargyloxy-quinazolin-2-yl]-methanone]
126 to 128	C#CCOc1ccc2nc(C(=O)c3cccn3C)nc(-c3ccc(C(C)C)cc3)c2c1 [Example 39, (1-Methyl-1H-pyrrol)-2-yl-[4-(4-isopropyl-phenyl)-6-propargyloxy-quinazolin-2-yl]-methanone]
